Data on 27 compounds can be found in patent US7851474B2, “Dipiperazinyl ketones and related analogues” (Neurogen Corporation, priority 2005, dated 2010).

Each structure is given as a SMILES string.

One assay deals with T1, chimeric human H3 receptor (Homo sapiens, UniProt Q9Y5N1, E19D).
T1 construct: made in house; host or cells: Sf9 insect cells (baculovirus infection); P2 membrane preparation
T1 sequence (Q9Y5N1 with tags, fused parts or gaps E19D): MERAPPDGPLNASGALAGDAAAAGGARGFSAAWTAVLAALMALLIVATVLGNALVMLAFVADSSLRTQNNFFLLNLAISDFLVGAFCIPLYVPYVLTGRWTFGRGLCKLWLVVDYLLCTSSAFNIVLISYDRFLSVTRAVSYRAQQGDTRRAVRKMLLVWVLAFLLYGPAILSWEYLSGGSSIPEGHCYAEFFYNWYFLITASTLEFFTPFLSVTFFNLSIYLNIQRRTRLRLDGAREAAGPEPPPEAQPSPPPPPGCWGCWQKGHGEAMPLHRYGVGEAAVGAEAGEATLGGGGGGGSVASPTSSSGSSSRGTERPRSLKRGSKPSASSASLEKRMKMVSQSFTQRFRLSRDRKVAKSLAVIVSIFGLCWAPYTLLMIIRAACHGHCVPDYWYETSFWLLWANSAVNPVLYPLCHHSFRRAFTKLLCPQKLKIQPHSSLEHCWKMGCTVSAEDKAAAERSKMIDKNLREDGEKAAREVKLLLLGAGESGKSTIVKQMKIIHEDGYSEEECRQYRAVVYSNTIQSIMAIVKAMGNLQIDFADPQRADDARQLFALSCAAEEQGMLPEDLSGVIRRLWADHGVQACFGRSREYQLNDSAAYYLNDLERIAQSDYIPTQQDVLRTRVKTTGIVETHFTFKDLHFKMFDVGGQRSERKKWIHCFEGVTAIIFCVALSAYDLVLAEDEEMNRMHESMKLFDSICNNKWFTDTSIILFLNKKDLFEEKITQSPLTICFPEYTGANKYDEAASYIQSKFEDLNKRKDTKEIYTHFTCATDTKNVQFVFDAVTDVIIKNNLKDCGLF
The assay can be described thus: Chimeric human H3 receptor screening GTP binding assay (inhibition of histamine-stimulated GTP-gamma35S binding, Example 8). The assay is classed as biochemical. Particulars: 1 h; "+" in Ki of Table II; assay of Example 8; read-out: percent inhibition of agonist-induced GTP-gammaS binding to H3. The procedure: This Example illustrates a representative screening assay for evaluating inhibition of histamine-stimulated GTP-gamma^35S binding. Such GTP binding activity can be used to identify H3 antagonists and inverse agonists. A compound analyzed in this assay is referred to herein as a “test compound,” and the initial identification of antagonists and inverse agonists is performed using a test compound concentration of 4 μM.
Four independent baculoviral stocks (one directing the expression of the chimeric human H3 receptor and three directing the expression of each of the three subunits of a heterotrimeric G-protein) are used to infect a culture of Sf9 cells as described above. P2 membranes are prepared as described above, and are resuspended by Dounce homogenization (tight pestle) in GTP binding assay buffer (50 mM Tris pH 7.4, 120 mM NaCl, 5 mM MgCl2, 2 mM EGTA, 1 mg/ml BSA, 0.2 mg/ml bacitracin, 0.02 mg/ml aprotinin, 0.01 mg/ml saponin, 10 μM GDP) and added to assay tubes at a concentration of 35 μg protein/reaction tube. Non-radiolabeled test compounds are added to separate reactions at a concentration of 4 μM along with 1 μM histamine (agonist). Reactions are initiated by the addition of 125 pM GTP-gamma^35S with a final assay volume of 0.20 ml.
After a 60-min incubation at room temperature, reactions are terminated by vacuum filtration over GF/C filters (pre-soaked in 50 mM Tris pH 7.4, 120 mM NaCl plus 0.1% BSA) followed by washing with ice-cold buffer (50 mM Tris pH 7.4, 120 mM NaCl). The amount of receptor-bound (and thereby membrane-bound) GTP-gamma^35S is determined by measuring the bound radioactivity, preferably by liquid scintillation spectrometry of the washed filters. Non-specific binding is determined using 10 uM GTP-gammaS and typically represents less than 5 percent of total binding. After subtraction of non-specific binding, data is expressed as percent inhibition of 1 μM histamine signal.
Neutral antagonists are those test compounds that reduce the histamine-stimulated GTP binding activity towards, but not below, baseline levels. In contrast, in the absence of added histamine, inverse agonists reduce the GTP binding activity of the receptor-containing membranes below baseline. Any test compound that elevates GTP binding activity above baseline in the absence of added histamine in this assay is defined as having agonist activity.
On the technique in general: GTPγS resists hydrolysis and so accumulates on activated G proteins.
A word on the inhibition: it is how much of the control response was suppressed. `COc1cc(CC(=O)N2CCN(CC(=O)N3CCN(C4CCC4)CC3)CC2)cc(OC)c1` [Compound 548, 1-cyclobutyl-4-({4-[(3,5-dimethoxyphenyl)acetyl]piperazin-1-yl}acetyl)piperazine]: the inhibition at 4 µM is > 90%. Same read-out and setting: the figure for `O=C(Cc1ccc(F)cc1F)N1CCN(CC(=O)N2CCN(C3CCC3)CC2)CC1` [Compound 506, 1-cyclobutyl-4-({4-[(2,4-difluorophenyl)acetyl]piperazin-1-yl}acetyl)piperazine] is > 90%. Same read-out and setting: in the case of `COc1cc(OC)c(OC)cc1/C=C/C(=O)N1CCN(CC(=O)N2CCN(C3CCC3)CC2)CC1` [Compound 518, 1-cyclobutyl-4-({4-[(2E)-3-(2,4,5-trimethoxyphenyl)prop-2-enoyl]piperazin-1-yl}acetyl)piperazine] it was > 90%; in that of `COc1ncccc1C(=O)N1CCN(CC(=O)N2CCN(C3CCC3)CC2)CC1` [Compound 537, 1-cyclobutyl-4-({4-[(2-methoxypyridin-3-yl)carbonyl]piperazin-1-yl}acetyl)piperazine], > 90%; in that of `COc1ccccc1/C=C/C(=O)N1CCN(CC(=O)N2CCN(C3CCC3)CC2)CC1` [Compound 525, 1-cyclobutyl-4-({4-[(2E)-3-(2-methoxyphenyl)prop-2-enoyl]piperazin-1-yl}acetyl)piperazine], > 90%.

Turning to `Cc1ccccc1OCC(=O)N1CCN(CC(=O)N2CCN(C3CCC3)CC2)CC1` [Compound 538, 1-cyclobutyl-4-({4-[(2-methylphenoxy)acetyl]piperazin-1-yl}acetyl)piperazine], the inhibition at 4 µM is > 90%.

With `Cc1c(C(=O)N2CCN(CC(=O)N3CCN(C4CCC4)CC3)CC2)cnn1-c1ccccc1` [Compound 569, 1-cyclobutyl-4-({4-[(5-methyl-1-phenyl-1H-pyrazol-4-yl)carbonyl]piperazin-1-yl}acetyl)piperazine], the inhibition at 4 µM is > 90%. On to `O=C(Cc1ccc(F)cc1)N1CCN(CC(=O)N2CCN(C3CCC3)CC2)CC1` [Compound 559, 1-cyclobutyl-4-({4-[(4-fluorophenyl)acetyl]piperazin-1-yl}acetyl)piperazine], for which the inhibition at 4 µM was > 90%. As to `COc1ccc(/C=C/C(=O)N2CCN(CC(=O)N3CCN(C4CCC4)CC3)CC2)cc1` [Compound 530, 1-cyclobutyl-4-({4-[(2E)-3-(4-methoxyphenyl)prop-2-enoyl]piperazin-1-yl}acetyl)piperazine], the inhibition at 4 µM is > 90%.

Turning to `Cc1ccccc1CC(=O)N1CCN(CC(=O)N2CCN(C3CCC3)CC2)CC1` [Compound 539, 1-cyclobutyl-4-({4-[(2-methylphenyl)acetyl]piperazin-1-yl}acetyl)piperazine], the inhibition at 4 µM is > 90%.

Staying with this assay, now noted: 1 h; Table II, "+" in the column headed Ki; assay of Example 8; read-out: percent inhibition of agonist-induced GTP-gammaS binding to H3.
In the case of `O=C(CN1CCN(C(=O)c2cccc(C(F)(F)F)c2)CC1)N1CCN(C2CCC2)CC1` [Compound 588, 1-cyclobutyl-4-({4-[3-(trifluoromethyl)benzoyl]piperazin-1-yl}acetyl)piperazine], the inhibition at 4 µM was > 90%.

Regarding `Cc1ccc(C)c(C(=O)N2CCN(CC(=O)N3CCN(C4CCC4)CC3)CC2)c1` [Compound 689, 1-cyclobutyl-4-{[4-(2,5-dimethylbenzoyl)piperazin-1-yl]acetyl}piperazine], the inhibition at 4 µM was > 90%. Still for that read-out and setting: in the case of `CCSc1ccc(C(=O)N2CCN(CC(=O)N3CCN(C4CCC4)CC3)CC2)cc1` [Compound 598, 1-cyclobutyl-4-({4-[4-(ethylthio)benzoyl]piperazin-1-yl}acetyl)piperazine] it was > 90%; in that of `CCC(CC)(C(=O)N1CCN(CC(=O)N2CCN(C3CCC3)CC2)CC1)c1ccccc1` [Compound 702, 1-cyclobutyl-4-{[4-(2-ethyl-2-phenylbutanoyl)piperazin-1-yl]acetyl}piperazine], > 90%; in that of `CC(C)C(C(=O)N1CCN(CC(=O)N2CCN(C3CCC3)CC2)CC1)c1ccccc1` (stereo not drawn) [Compound 760, 1-cyclobutyl-4-{[4-(3-methyl-2-phenylbutanoyl)piperazin-1-yl]acetyl}piperazine], > 90%.

For the compound `CSc1ccc(CC(=O)N2CCN(CC(=O)N3CCN(C4CCC4)CC3)CC2)cc1` [Compound 628, 1-cyclobutyl-4-[(4-{[4-(methylthio)phenyl]acetyl}piperazin-1-yl)acetyl]piperazine], the inhibition at 4 µM was > 90%. Still for that read-out and setting: in the case of `O=C(CN1CCN(C(=O)c2ccc(Cl)c(Cl)c2)CC1)N1CCN(C2CCC2)CC1` [Compound 726, 1-cyclobutyl-4-{[4-(3,4-dichlorobenzoyl)piperazin-1-yl]acetyl}piperazine] it was > 90%; in that of `Cc1ccc(Oc2ncccc2C(=O)N2CCN(CC(=O)N3CCN(C4CCC4)CC3)CC2)c(C)c1` [Compound 617, 1-cyclobutyl-4-[(4-{[2-(2,4-dimethylphenoxy)pyridin-3-yl]carbonyl}piperazin-1-yl)acetyl]piperazine], > 90%; in that of `O=C(CN1CCN(C(=O)c2ccc3c(c2)CCO3)CC1)N1CCN(C2CCC2)CC1` [Compound 669, 1-cyclobutyl-4-{[4-(2,3-dihydro-1-benzofuran-5-ylcarbonyl)piperazin-1-yl]acetyl}piperazine], > 90%.

The assay is the same for the next values; noted with them: 1 h; Table II; assay of Example 8; "+" in Ki; read-out: percent inhibition of agonist-induced GTP-gammaS binding to H3.
Turning to `O=C(CN1CCN(C(=O)c2cc(-c3ccccc3)nc3ccccc23)CC1)N1CCN(C2CCC2)CC1` [Compound 1089], the inhibition at 4 µM was > 90%.

Staying with this assay, now noted: 1 h; assay described in Example 8; symbol + in column headed Ki of Table II; read-out: percent inhibition of agonist-induced GTP-gammaS binding to H3.
For `Cc1cc(C(=O)N2CCN(CC(=O)N3CCN(C4CCC4)CC3)CC2)ccc1Cl` [Compound 348, 1-(4-chloro-3-methylbenzoyl)-4-[2-(4-cyclobutylpiperazin-1-yl)-2-oxoethyl]piperazine], the inhibition at 4 µM was > 90%. On the same count and under the same terms, the figure for `O=C(CN1CCN(C(=O)c2c(F)cccc2Cl)CC1)N1CCN(C2CCC2)CC1` [Compound 274, 1-(2-chloro-6-fluorobenzoyl)-4-[2-(4-cyclobutylpiperazin-1-yl)-2-oxoethyl]piperazine] is > 90%; for `O=C(CN1CCN(C(=O)c2ccccc2-c2ccccc2)CC1)N1CCN(C2CCC2)CC1` [Compound 374, 1-(biphenyl-2-ylcarbonyl)-4-[2-(4-cyclobutylpiperazin-1-yl)-2-oxoethyl]piperazine] it is > 90%; for `COc1ccc(Br)c(OC)c1C(=O)N1CCN(CC(=O)N2CCN(C3CCC3)CC2)CC1` [Compound 290, 1-(3-bromo-2,6-dimethoxybenzoyl)-4-[2-(4-cyclobutylpiperazin-1-yl)-2-oxoethyl]piperazine] it is > 90%. With `O=C(Cc1ccc(-c2ccccc2)cc1)N1CCN(CC(=O)N2CCN(C3CCC3)CC2)CC1` [Compound 375, 1-(biphenyl-4-ylacetyl)-4-[2-(4-cyclobutylpiperazin-1-yl)-2-oxoethyl]piperazine], the inhibition at 4 µM was > 90%.

With `CCOc1ccc(Br)cc1/C=C/C(=O)N1CCN(CC(=O)N2CCN(C3CCC3)CC2)CC1` [Compound 392, 1-[(2E)-3-(5-bromo-2-ethoxyphenyl)prop-2-enoyl]-4-[2-(4-cyclobutylpiperazin-1-yl)-2-oxoethyl]piperazine], the inhibition at 4 µM was > 90%. The same measure, in the same setting: the figure for `O=C(CN1CCN(C(=O)c2ccc(Cl)nc2)CC1)N1CCN(C2CCC2)CC1` [Compound 416, 1-[(6-chloropyridin-3-yl)carbonyl]-4-[2-(4-cyclobutylpiperazin-1-yl)-2-oxoethyl]piperazine] is > 90%.
